Reference: patent US9770026B2, “Substituted pyrimidine compound and uses thereof” (Shenyang Sinochem Agrochemicals R&D Co., Ltd., priority 2012, dated 2017)

Legend:
rice blast = assay: microbe, parasite or virus in culture; type: cell-based; conditions: Pyricularia oryzae; for inhibition at 8.3 ppm: read-out: inhibition rate against rice blast, 8.3 ppm, in vitro; for inhibition at 25 ppm: read-out: inhibition rate against rice blast, 25 ppm, in vitro
cucumber gray mold = assay: fungicidal activity in vitro (inhibition rate) against cucumber gray mold; type: cell-based; conditions: 25 ppm, in vitro; read-out: inhibition rate against cucumber gray mold
Diamond back moth = assay: insecticidal activity against diamond back moth, airbrush spray; type: in vivo
Outline: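 Airbrush leaf-disc spray test: both faces of 2 cm cabbage discs received 0.5 ml of test solution at 0.7 kg/cm^2. Solutions were made in acetone:methanol (1:1) and brought to concentration with 0.1% Tween 80 in water. Ten second-instar larvae per disc, triplicates, were held at 25° C and 60˜70% R.H., with mortality recorded at 72 hrs.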

armyworm = assay: bioactivity test against armyworm, airbrush spray; type: in vivo
[1] = test system: Green peach aphids (Myzus Persicae Sulzer); assay: bioactivity test against green peach aphid, airbrush foliar spray; type: in vivo; conditions: for pest or weed control at 10 µg/mL: 10 mg/L; for pest or weed control at 100 µg/mL: 100 mg/L
Outline: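 Aphids (15-30 per cabbage leaf disc) on moist filter paper were airbrush-sprayed at 10 psi, 0.5 mL, with compound from acetone:methanol (1:1) diluted in water with 0.1% tween 80. Held at 25±1 C, 60±5% RH; survivors counted after 48 hrs to give death rates.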

corn rust = assay: protectant activity in vivo against corn rust; conditions: Zea mays, 168 h; for pest or weed control at 6.25 µg/mL: read-out: control effect against corn rust (%), 6.25 mg/L; for pest or weed control at 6.25 µg/mL / pest or weed control at 25 µg/mL / pest or weed control at 100 µg/mL / pest or weed control at 400 µg/mL: protectant activity; for pest or weed control at 25 µg/mL: read-out: control effect against corn rust (%), 25 mg/L; for pest or weed control at 100 µg/mL: read-out: control effect against corn rust (%), 100 mg/L; for pest or weed control at 400 µg/mL: read-out: control effect against corn rust (%), 400 mg/L; for pest or weed control at 25 ppm: read-out: protectant activity against corn rust in vivo, 25 ppm; for pest or weed control at 100 ppm: read-out: protectant activity against corn rust in vivo, 100 ppm; for pest or weed control at 400 ppm: read-out: protectant activity against corn rust in vivo, 400 ppm
wheat powdery mildew = assay: protectant activity in vivo against wheat powdery mildew; conditions: for pest or weed control at 6.25 µg/mL / pest or weed control at 25 µg/mL / pest or weed control at 100 µg/mL / pest or weed control at 400 µg/mL / pest or weed control at 400 ppm: Triticum aestivum, 168 h; for pest or weed control at 6.25 µg/mL: read-out: control effect against wheat powdery mildew (%), 6.25 mg/L; for pest or weed control at 25 µg/mL: read-out: control effect against wheat powdery mildew (%), 25 mg/L; for pest or weed control at 100 µg/mL: read-out: control effect against wheat powdery mildew (%), 100 mg/L; for pest or weed control at 400 µg/mL: read-out: control effect against wheat powdery mildew (%), 400 mg/L; for pest or weed control at 400 ppm: read-out: protectant activity against wheat powdery mildew in vivo, 400 ppm
carmine spider mite = assay: bioactivity test against carmine spider mite, airbrush spray; type: in vivo; conditions: for pest or weed control at 10 µg/mL: 10 mg/L; for pest or weed control at 10 µg/mL / pest or weed control at 100 µg/mL / pest or weed control at 600 µg/mL: read-out: Insecticidal activity against carmine spider mite (% ); for pest or weed control at 100 µg/mL: 100 mg/L
Outline: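 Broadbean seedlings infested with adult mites were sprayed with compound (acetone/methanol stock diluted in 0.1% Tween 80 water) by airbrush at 0.7 kg/cm^2, 0.5 ml. Three replicates were run. Mortality was scored after 72 hrs.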

cucumber downy mildew = assay: protectant activity in vivo against cucumber downy mildew; conditions: for pest or weed control at 100 ppm: read-out: protectant activity against cucumber downy mildew in vivo, 100 ppm; for pest or weed control at 400 ppm: read-out: protectant activity against cucumber downy mildew in vivo, 400 ppm
[2] = 72 h, 600 mg/L, read-out: Insecticidal activity against armyworm (%)
[3] = Myzus persicae, foliar, 48 h, contrastive test, read-out: Insecticidal activity against peach aphid (%)
[4] = Myzus persicae, foliar, 48 h, 600 mg/L, contrastive test, read-out: Insecticidal activity against peach aphid (%)
[5] = Tetranychus cinnabarinus, 72 h, contrastive test
[6] = Tetranychus cinnabarinus, 72 h, 600 mg/L, contrastive test
[7] = Myzus persicae, foliar, 48 h, death rate after 48 hrs

SMILES | inhibition at 8.3 ppm (rice blast) [%] | inhibition at 25 ppm (rice blast) [%] | inhibition at 25 ppm (cucumber gray mold) [%] | pest or weed control at 600 µg/mL (Diamond back moth; 72 h, 600 mg/L) [%] | pest or weed control at 600 µg/mL (armyworm; [2]) [%] | pest or weed control at 10 µg/mL [1, 3] [%] | pest or weed control at 100 µg/mL [1, 3] [%] | pest or weed control at 600 µg/mL [1, 4] [%] | pest or weed control at 6.25 µg/mL (corn rust) [%] | pest or weed control at 25 µg/mL (corn rust) [%] | pest or weed control at 100 µg/mL (corn rust) [%] | pest or weed control at 400 µg/mL (corn rust) [%] | pest or weed control at 6.25 µg/mL (wheat powdery mildew; protectant activity) [%] | pest or weed control at 25 µg/mL (wheat powdery mildew; protectant activity) [%] | pest or weed control at 100 µg/mL (wheat powdery mildew; protectant activity) [%] | pest or weed control at 400 µg/mL (wheat powdery mildew; protectant activity) [%] | pest or weed control at 10 µg/mL (carmine spider mite; [5]) [%] | pest or weed control at 100 µg/mL (carmine spider mite; [5]) [%] | pest or weed control at 600 µg/mL (carmine spider mite; [6]) [%] | pest or weed control at 600 ppm [1, 7] [%] | also measured
CCc1ncnc(NCc2ccc(Oc3ccc(C(F)(F)F)cc3Cl)cc2)c1Cl [CK48, reference compound] | 0 | < 50 | 0 | 40 | 50 | 0 | 87 | 100 | 0 | 0 | 20 | 60 | 0 | 0 | 0 | 30 |  |  |  |  | 
Cc1ncnc(NC(C)c2ccc(Oc3ccc(C(F)(F)F)cc3)cc2)c1Cl (centres unmarked) [CK46, reference compound] | 0 | < 50 | 0 | 100 | 71 | 0 | 5 | 100 | 0 | 0 | 0 | 40 |  |  |  |  | 28 | 63 | 100 |  | pest or weed control at 10 µg/mL (Diamond back moth; 72 h, 10 mg/L): 0%; pest or weed control at 100 µg/mL (Diamond back moth; 72 h, 100 mg/L): 10%; pest or weed control at 10 µg/mL (armyworm; 72 h, 10 mg/L, read-out: Insecticidal activity against armyworm (%)): 0%; pest or weed control at 100 µg/mL (armyworm; 72 h, 100 mg/L, read-out: Insecticidal activity against armyworm (%)): 0%
Cc1ncnc(NCc2ccc(Oc3ncc(C(F)(F)F)cc3Cl)cc2)c1Cl [CK32, reference compound] |  | < 50 | 0 |  |  |  |  |  |  |  |  |  |  |  |  |  | 0 | 22 |  |  | Insecticidal activity against diamond back moth (%) (Diamond back moth; 600 mg/L): 0%; Insecticidal activity against armyworm (%) (armyworm; 600 mg/L): 0%; Insecticidal activity against peach aphid (%) ([1]; 600 mg/L, contrastive test): 0%; Insecticidal activity against carmine spider mite (% ) (carmine spider mite; 600 mg/L, contrastive test): 91%; control effect against wheat powdery mildew (%) (wheat powdery mildew; 400 mg/L, protectant activity): 0%; control effect against cucumber downy mildew (%) (cucumber downy mildew; 400 mg/L, protectant activity): 60%
FC(F)c1ncnc(NCCc2ccc(Oc3ccc(Cl)cc3Cl)nc2)c1Cl [III-622] |  | 80 to 99 | 80 to 99 |  |  |  |  |  |  |  |  |  |  |  |  |  |  |  |  | 100 | pest or weed control at 600 ppm (Diamond back moth; 72 h, 600 ppm, mortality after 72 hrs, read-out: control (test results against diamond back moth)): 100%; pest or weed control at 6.25 ppm (corn rust; read-out: protectant activity against corn rust in vivo, 6.25 ppm): 80 to 99%; pest or weed control at 25 ppm (corn rust): 100%; pest or weed control at 100 ppm (corn rust): 100%; pest or weed control at 400 ppm (corn rust): 100%; pest or weed control at 400 ppm (wheat powdery mildew): 100%; pest or weed control at 6.25 µg/mL (cucumber downy mildew; Cucumis sativus, 168 h, read-out: control effect against cucumber downy mildew (%), 6.25 mg/L, protectant activity): 98%; pest or weed control at 12.5 µg/mL (cucumber downy mildew; Cucumis sativus, 168 h, read-out: control effect against cucumber downy mildew (%), 12.5 mg/L, protectant activity): 100%; pest or weed control at 25 µg/mL (cucumber downy mildew; Cucumis sativus, 168 h, read-out: control effect against cucumber downy mildew (%), 25 mg/L, protectant activity): 100%; pest or weed control at 50 µg/mL (cucumber downy mildew; Cucumis sativus, 168 h, read-out: control effect against cucumber downy mildew (%), 50 mg/L, protectant activity): 100%; pest or weed control at 100 µg/mL (cucumber downy mildew; Cucumis sativus, 168 h, read-out: control effect against cucumber downy mildew (%), 100 mg/L, protectant activity): 100%; pest or weed control at 400 µg/mL (cucumber downy mildew; Cucumis sativus, 168 h, read-out: control effect against cucumber downy mildew (%), 400 mg/L, protectant activity): 100%; pest or weed control at 6.25 ppm (cucumber downy mildew; Cucumis sativus, 168 h, read-out: protectant activity against cucumber downy mildew in vivo, 6.25 ppm): 80 to 99%; pest or weed control at 12.5 ppm (cucumber downy mildew; Cucumis sativus, 168 h, read-out: protectant activity against cucumber downy mildew in vivo, 12.5 ppm): 100%; pest or weed control at 25 ppm (cucumber downy mildew; Cucumis sativus, 168 h, read-out: protectant activity against cucumber downy mildew in vivo, 25 ppm): 100%; pest or weed control at 50 ppm (cucumber downy mildew; Cucumis sativus, 168 h, read-out: protectant activity against cucumber downy mildew in vivo, 50 ppm): 100%; pest or weed control at 100 ppm (cucumber downy mildew; Cucumis sativus, 168 h): 100%; pest or weed control at 400 ppm (cucumber downy mildew; Cucumis sativus, 168 h): 100%
Cc1ncnc(NCCc2ccc(Oc3ccc(C(F)(F)F)cc3)cc2)c1Cl [II-69] |  | 80 to 99 | 80 to 99 |  |  | 100 | 100 | 100 |  |  |  |  |  |  |  |  | 90 | 100 | 100 | 100 | pest or weed control at 100 ppm (armyworm; 72 h, 100 ppm, mortality after 72 h): 80 to 99%; pest or weed control at 600 ppm (armyworm; 72 h, 600 ppm, mortality after 72 h): 100%; pest or weed control at 2.5 µg/mL ([1]; Myzus persicae, foliar, 48 h, 2.5 mg/L, contrastive test, read-out: Insecticidal activity against peach aphid (%)): 81%; pest or weed control at 5 µg/mL ([1]; Myzus persicae, foliar, 48 h, 5 mg/L, contrastive test, read-out: Insecticidal activity against peach aphid (%)): 100%; pest or weed control at 2.5 ppm ([1]; Myzus persicae, foliar, 48 h, 2.5 ppm, death rate after 48 hrs): 80 to 99%; pest or weed control at 5 ppm ([1]; Myzus persicae, foliar, 48 h, 5 ppm, death rate after 48 hrs): 100%; pest or weed control at 10 ppm ([1]; Myzus persicae, foliar, 48 h, 10 ppm, death rate after 48 hrs): 100%; pest or weed control at 100 ppm ([1]; Myzus persicae, foliar, 48 h, 100 ppm, death rate after 48 hrs): 100%; pest or weed control at 10 ppm (carmine spider mite; Tetranychus cinnabarinus, 72 h, 10 ppm, mortality after 72 hrs): 80 to 99%; pest or weed control at 100 ppm (carmine spider mite; Tetranychus cinnabarinus, 72 h, 100 ppm, mortality after 72 hrs): 100%; pest or weed control at 600 ppm (carmine spider mite; Tetranychus cinnabarinus, 72 h, 600 ppm, mortality after 72 hrs): 100%; pest or weed control at 25 ppm (corn rust): 100%; pest or weed control at 100 ppm (corn rust): 100%; pest or weed control at 400 ppm (corn rust): 100%; pest or weed control at 400 ppm (wheat powdery mildew): 100%; pest or weed control at 100 ppm (cucumber downy mildew; Cucumis sativus, 168 h): 80 to 99%; pest or weed control at 400 ppm (cucumber downy mildew; Cucumis sativus, 168 h): 100%
Cc1ncnc(NCc2ccc(Oc3ccc(C(F)(F)F)cc3Cl)cc2)c1Cl [CK51, reference compound] | 0 |  | 0 | 57 | 43 | 0 | 50 | 100 | 0 | 0 | 20 | 80 | 0 | 40 | 80 | 100 |  |  |  |  | 
